Laboratory results as given in patent US6376426B1, “Herbicidal 3-(heterocycl-1-yl)-uracils” (BASF Aktiengesellschaft, priority 1999, dated 2002).

How the values were obtained:
Assay type in all cases: in vivo
[1] = tested on: Matricaria inodora; assay: Pre-emergence herbicidal test, MATIN; parameters: key to herbicidal effect (0-9 scale) MATIN / herbicidal rating MATIN: A rating 0 indicates growth as untreated control; a rating 9 indicates death; details: for herbicidal rating MATIN: PRE, 0-9 scale, 21 days after spraying
[2] = tested on: Echinochloa crus-galli; assay: Pre-emergence herbicidal test, ECHCG; parameters: key: A rating 0 indicates growth as untreated control; a rating 9 indicates death; details: 0-9 scale, 21 days after spraying
[3] = tested on: Matricaria inodora; assay: Post-emergence herbicidal test, MATIN; parameters: key to herbicidal effect (0-9 scale) MATIN / herbicidal rating MATIN: A rating 0 indicates growth as untreated control; a rating 9 indicates death; details: for herbicidal rating MATIN: POST, 0-9 scale, 21 days after spraying
Procedure, shortened: (§1)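 Herbicidal effect is recorded on a linear 0-9 scale, where 0 means growth like untreated control and 9 means death, with one unit approximating 10% more effect.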

[4] = tested on: Ipomoea hederacea; assay: Post-emergence herbicidal test, IPOHE; parameters: key to herbicidal effect (0-9 scale) IPOHE / herbicidal rating IPOHE: A rating 0 indicates growth as untreated control; a rating 9 indicates death; details: for herbicidal rating IPOHE: POST, 0-9 scale, 21 days after spraying
Procedure, shortened: as §1

[5] = tested on: Abutilon theophrasti; assay: Post-emergence herbicidal test, ABUTH; parameters: key to herbicidal effect (0-9 scale) ABUTH / herbicidal rating ABUTH: A rating 0 indicates growth as untreated control; a rating 9 indicates death; details: for herbicidal rating ABUTH: POST, 0-9 scale, 21 days after spraying
Procedure, shortened: as §1

[6] = tested on: Glycine max; assay: Pre-emergence herbicidal test, GLXMA; parameters: key to herbicidal effect (0-9 scale) GLXMA / herbicidal rating GLXMA: A rating 0 indicates growth as untreated control; a rating 9 indicates death; details: for herbicidal rating GLXMA: PRE, 0-9 scale, 21 days after spraying
Protocol: (§2) To evaluate their herbicidal activity, compounds according to the invention are tested using a representative range of plants:
(§3) The pre-emergence tests involve spraying a liquid formulation of the compound onto the soil in which the seeds of the plant species mentioned above has recently been sown.
(§4) The soil used in the tests is a prepared horticultural loam. The formulations used in the tests are prepared from solutions of the test compounds in acetone containing 0.4% by weight of an alkylphenol/ethylene oxide condensate available under the trade mark TRITON X-155. […] In these tests untreated sown soil are used as controls.
(§5) The herbicidal effects of the test compounds are assessed visually twenty-one days after spraying the foliage and the soil and are recorded on a 0-9 scale. A rating 0 indicates growth as untreated control, a rating 9 indicates death. An increase of 1 unit on the linear scale approximates to a 10% increase in the level of effect.

[7] = tested on: Alopecurus myosuroides; assay: Post-emergence herbicidal test, ALOMY; parameters: key: A rating 0 indicates growth as untreated control; a rating 9 indicates death; details: 0-9 scale, 21 days after spraying
Procedure, shortened: as §1

[8] = tested on: representative range of plants; assay: Pre-emergence herbicidal test, summary over the plants tested; details: 100 g/ha
Protocol: as §2, §3, §4, §5

[9] = tested on: Echinochloa crus-galli; assay: Post-emergence herbicidal test, ECHCG; parameters: key: A rating 0 indicates growth as untreated control; a rating 9 indicates death; details: 0-9 scale, 21 days after spraying
Procedure, shortened: as §1

[10] = tested on: Galium aparine; assay: Post-emergence herbicidal test, GALAP; parameters: key to herbicidal effect (0-9 scale) GALAP / herbicidal rating GALAP: A rating 0 indicates growth as untreated control; a rating 9 indicates death; details: for herbicidal rating GALAP: POST, 0-9 scale, 21 days after spraying
Procedure, shortened: as §1

[11] = tested on: Abutilon theophrasti; assay: Pre-emergence herbicidal test, ABUTH; parameters: key to herbicidal effect (0-9 scale) ABUTH / herbicidal rating ABUTH: A rating 0 indicates growth as untreated control; a rating 9 indicates death; details: for herbicidal rating ABUTH: PRE, 0-9 scale, 21 days after spraying
[12] = tested on: Alopecurus myosuroides; assay: Pre-emergence herbicidal test, ALOMY; parameters: key to herbicidal effect (0-9 scale) ALOMY / herbicidal rating ALOMY: A rating 0 indicates growth as untreated control; a rating 9 indicates death; details: PRE, 0-9 scale, 21 days after spraying
[13] = tested on: representative range of plants; assay: Post-emergence herbicidal test, summary over the plants tested; details: 100 g/ha
Protocol: as §2
(§6) […] After spraying, the plants are placed on greenhouse benches and are cared for in the usual manner, commensurate with conventional greenhouse practices.
as §5

[14] = tested on: Galium aparine; assay: Pre-emergence herbicidal test, GALAP; parameters: key to herbicidal effect (0-9 scale) GALAP / herbicidal rating GALAP: A rating 0 indicates growth as untreated control; a rating 9 indicates death; details: for herbicidal rating GALAP: PRE, 0-9 scale, 21 days after spraying
[15] = tested on: Ipomoea hederacea; assay: Pre-emergence herbicidal test, IPOHE; parameters: key: A rating 0 indicates growth as untreated control; a rating 9 indicates death; details: 0-9 scale, 21 days after spraying
[16] = tested on: Glycine max; assay: Post-emergence herbicidal test, GLXMA; parameters: key: A rating 0 indicates growth as untreated control; a rating 9 indicates death; details: 0-9 scale, 21 days after spraying
Protocol: as §2, §6, §5

[17] = tested on: Setaria viridis; assay: Pre-emergence herbicidal test, SETVI; parameters: key to herbicidal effect (0-9 scale) SETVI / herbicidal rating SETVI: A rating 0 indicates growth as untreated control; a rating 9 indicates death; details: for herbicidal rating SETVI: PRE, 0-9 scale, 21 days after spraying
[18] = tested on: Setaria viridis; assay: Post-emergence herbicidal test, SETVI; parameters: key to herbicidal effect (0-9 scale) SETVI / herbicidal rating SETVI: A rating 0 indicates growth as untreated control; a rating 9 indicates death; details: POST, 0-9 scale, 21 days after spraying
Procedure, shortened: as §1

Structure (SMILES): Cn1c(C(F)(F)F)cc(=O)n(-n2ccc3c(Cl)cccc32)c1=O [Example 169, 3-(4-Chloro-indol-1-yl)-1-methyl-6-trifluoromethylpyrimidine-2,4-dione]
- herbicidal rating MATIN ([1]; 12.5 g/ha): 8
- herbicidal rating MATIN ([1]; 25 g/ha): 8
- herbicidal rating MATIN ([1]; 100 g/ha): 9
- herbicidal rating MATIN ([1]; 400 g/ha): 9
- control of Matricaria ([1]; pre-emergence, 25 g/ha): good control
- herbicidal rating ECHCG ([2]; 12.5 g/ha): 4
- herbicidal rating ECHCG ([2]; 25 g/ha): 7
- herbicidal rating ECHCG ([2]; 100 g/ha): 9
- herbicidal rating ECHCG ([2]; 400 g/ha): 9
- herbicidal rating MATIN ([3]; 25 g/ha): 8
- herbicidal rating MATIN ([3]; 100 g/ha): 9
- herbicidal rating MATIN ([3]; 400 g/ha): 9
- control of Matricaria ([3]; post-emergence, 12.5 g/ha): excellent control
- herbicidal rating IPOHE ([4]; 25 g/ha): 9
- herbicidal rating IPOHE ([4]; 100 g/ha): 9
- herbicidal rating IPOHE ([4]; 400 g/ha): 9
- control of Ipomoea ([4]; post-emergence, 12.5 g/ha): excellent control
- herbicidal rating ABUTH ([5]; 25 g/ha): 9
- herbicidal rating ABUTH ([5]; 100 g/ha): 9
- herbicidal rating ABUTH ([5]; 400 g/ha): 9
- control of Abutilon ([5]; post-emergence, 12.5 g/ha): excellent control
- herbicidal rating GLXMA ([6]; 12.5 g/ha): 0
- herbicidal rating GLXMA ([6]; 25 g/ha): 0
- herbicidal rating GLXMA ([6]; 100 g/ha): 3
- herbicidal rating GLXMA ([6]; 400 g/ha): 5
- selectivity in soy beans ([6]; pre-emergence, 25 g/ha): Surprisingly good selectivity
- herbicidal rating ALOMY ([7]; 25 g/ha): 2
- herbicidal rating ALOMY ([7]; 100 g/ha): 6
- herbicidal rating ALOMY ([7]; 400 g/ha): 9
- control of the weeds [8]: all of the weeds except Alopecurus were well controlled
- herbicidal rating ECHCG ([9]; 25 g/ha): 5
- herbicidal rating ECHCG ([9]; 100 g/ha): 9
- herbicidal rating ECHCG ([9]; 400 g/ha): 9
- herbicidal rating GALAP ([10]; 25 g/ha): 9
- herbicidal rating GALAP ([10]; 100 g/ha): 9
- herbicidal rating GALAP ([10]; 400 g/ha): 9
- control of Galium ([10]; post-emergence, 12.5 g/ha): excellent control
- herbicidal rating ABUTH ([11]; 12.5 g/ha): 5
- herbicidal rating ABUTH ([11]; 25 g/ha): 9
- herbicidal rating ABUTH ([11]; 100 g/ha): 9
- herbicidal rating ABUTH ([11]; 400 g/ha): 9
- control of Abutilon ([11]; pre-emergence, 25 g/ha): good control
- herbicidal rating ALOMY ([12]; 12.5 g/ha): 2
- herbicidal rating ALOMY ([12]; 25 g/ha): 5
- herbicidal rating ALOMY ([12]; 100 g/ha): 7
- herbicidal rating ALOMY ([12]; 400 g/ha): 9
- control of the weeds [13]: good cross spectrum control on both broadleaf weeds and grasses
- herbicidal rating GALAP ([14]; 12.5 g/ha): 7
- herbicidal rating GALAP ([14]; 25 g/ha): 8
- herbicidal rating GALAP ([14]; 100 g/ha): 9
- herbicidal rating GALAP ([14]; 400 g/ha): 9
- control of Galium ([14]; pre-emergence, 25 g/ha): good control
- herbicidal rating IPOHE ([15]; 12.5 g/ha): 2
- herbicidal rating IPOHE ([15]; 25 g/ha): 4
- herbicidal rating IPOHE ([15]; 100 g/ha): 8
- herbicidal rating IPOHE ([15]; 400 g/ha): 9
- herbicidal rating GLXMA ([16]; 25 g/ha): 5
- herbicidal rating GLXMA ([16]; 100 g/ha): 7
- herbicidal rating GLXMA ([16]; 400 g/ha): 9
- herbicidal rating SETVI ([17]; 12.5 g/ha): 8
- herbicidal rating SETVI ([17]; 25 g/ha): 9
- herbicidal rating SETVI ([17]; 100 g/ha): 9
- herbicidal rating SETVI ([17]; 400 g/ha): 9
- control of Setaria ([17]; pre-emergence, 25 g/ha): good control
- herbicidal rating SETVI ([18]; 25 g/ha): 6
- herbicidal rating SETVI ([18]; 100 g/ha): 9
- herbicidal rating SETVI ([18]; 400 g/ha): 9
